Data: patent US7045280B2, “Assay method” (AstraZeneca AB, priority 1999, dated 2006)

Experiments:
Format in all cases: biochemical
tPA = target: T1, tPA (Homo sapiens, UniProt P00750); assay: tPA chromogenic substrate assay (Spectrozyme tPA, fibrin stimulator)
T1 construct: purchased Quadratech 821157
Protocol: (§1) Briefly, uPA (high molecular weight uPA Calbiochem, Cat. 627081), tpA (Quadratech, Cat. 821157) or plasmin (Quadratech, Cat. 810655) were diluted-in buffer comprising 0.5M tris HCl, 0.1% tween 20 pH 8.3. Urokinase activity was measured in a final volume of 100 μl containing 0.4 mM S2444 in assay buffer by following the increase in absorbance at 405 nm. The activity of tPA was measured in a final volume of 100 μl, containing 230 nM Spectrozyrne tPA substrate (American Diagnostica, Cat. 444L) and 40 μg per ml tPA stimulator (fibrin, Quadratech, Cat. 821116) and following the increase in absorbance at 405 nm. Plasmin activity was measured in a final volume of 100 μl containing 0.66 mM S2251, and following the increase in absorbance at 405 nm.

Plasmin = target: T2, Plasmin (Homo sapiens, UniProt P00747); assay: Plasmin chromogenic substrate assay (S2251)
T2 construct: purchased Quadratech 810655
Protocol: as §1

uPA = target: T3, uPA (Homo sapiens, UniProt P00749); assay: uPA chromogenic substrate assay (S2444)
T3 construct: uPA (high molecular weight uPA Calbiochem, Cat. 627081); purchased Calbiochem 627081
Protocol: as §1

T1 sequence (P00750 36-562): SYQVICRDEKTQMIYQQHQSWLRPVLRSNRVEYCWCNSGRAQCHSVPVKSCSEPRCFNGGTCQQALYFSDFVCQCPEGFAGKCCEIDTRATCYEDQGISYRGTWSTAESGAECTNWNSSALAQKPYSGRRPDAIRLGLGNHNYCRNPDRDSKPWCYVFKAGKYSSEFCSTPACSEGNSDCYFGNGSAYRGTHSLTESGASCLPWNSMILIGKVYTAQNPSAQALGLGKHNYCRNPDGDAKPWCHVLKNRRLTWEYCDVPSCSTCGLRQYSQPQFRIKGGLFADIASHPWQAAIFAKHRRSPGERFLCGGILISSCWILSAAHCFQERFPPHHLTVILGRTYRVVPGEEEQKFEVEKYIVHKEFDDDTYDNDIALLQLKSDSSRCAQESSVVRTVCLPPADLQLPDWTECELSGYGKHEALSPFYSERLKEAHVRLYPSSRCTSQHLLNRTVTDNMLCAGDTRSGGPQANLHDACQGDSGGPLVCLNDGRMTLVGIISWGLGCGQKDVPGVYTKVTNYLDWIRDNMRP
T2 sequence (P00747 97-580 partner limits assumed): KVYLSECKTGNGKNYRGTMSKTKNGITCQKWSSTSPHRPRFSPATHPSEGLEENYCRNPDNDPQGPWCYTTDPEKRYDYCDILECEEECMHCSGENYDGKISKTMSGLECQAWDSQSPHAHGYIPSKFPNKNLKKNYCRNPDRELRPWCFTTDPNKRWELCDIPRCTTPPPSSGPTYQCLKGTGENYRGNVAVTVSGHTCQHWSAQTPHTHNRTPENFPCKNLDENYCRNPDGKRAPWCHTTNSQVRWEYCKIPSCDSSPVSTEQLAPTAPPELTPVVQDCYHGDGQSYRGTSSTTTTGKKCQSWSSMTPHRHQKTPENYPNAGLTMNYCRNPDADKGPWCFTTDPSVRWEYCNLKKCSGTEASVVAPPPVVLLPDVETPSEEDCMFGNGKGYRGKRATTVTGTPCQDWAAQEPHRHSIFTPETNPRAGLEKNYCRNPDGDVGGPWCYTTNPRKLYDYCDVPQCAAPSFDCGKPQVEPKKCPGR
T2 sequence (P00747 581-810 limits assumed): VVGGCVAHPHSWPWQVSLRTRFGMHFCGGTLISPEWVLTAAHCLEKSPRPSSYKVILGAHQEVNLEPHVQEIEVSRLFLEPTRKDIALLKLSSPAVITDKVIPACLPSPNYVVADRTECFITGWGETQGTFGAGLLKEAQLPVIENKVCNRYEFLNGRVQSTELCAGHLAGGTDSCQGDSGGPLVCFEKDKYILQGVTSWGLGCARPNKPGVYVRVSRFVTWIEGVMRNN

% inhibition (tPA; 100 μM elastase inhibitor, tPA (30 nM), Spectrozyme tPA substrate, 40 μg per ml tPA stimulator, absorbance at 405 nm): 9% | inhibition of tPA activity (in words) (tPA; chromogenic substrate assay): did not significantly inhibit | % inhibition (Plasmin; 100 μM elastase inhibitor, Plasmin (2.5 μg ml-1), 0.66 mM S2251, absorbance at 405 nm): 2% | inhibition of plasmin activity (in words) (Plasmin; chromogenic substrate assay): did not significantly inhibit | % inhibition (uPA; 100 μM elastase inhibitor, uPA (5 nM), 0.4 mM S2444, absorbance at 405 nm): 2% | inhibition of uPA activity (in words) (uPA; chromogenic substrate assay): did not significantly inhibit
Structure (SMILES): CC(C)[C@H](NC(=O)c1ccc(C(=O)NS(=O)(=O)c2ccc(Br)cc2)cc1)C(=O)N1CCC[C@H]1C(=O)N[C@H](C(=O)C(F)(F)F)C(C)C [elastase inhibitor, 3S-[4-[(4-bromophenyl)sulfonylaminocarbonyl]phenylcarbonyl]-L-valyl-N-[3-(1,1,1-trifluoro-4-methyl-2-oxopentyl)]-L-prolinamide]
